Source: patent US11655235B2, “Pyrrolidine and piperidine compounds” (YUHAN CORPORATION, priority 2019, dated 2023)

What was measured:
Format in all cases: biochemical
[1] = target: T1, Recombinant human FAP (Homo sapiens, UniProt Q12884); assay: FAP inhibition, fluorogenic substrate Z-Gly-Pro-AMC; settings: 25° C., Z-Gly-Pro-AMC substrate
T1 construct: purchased R&D systems
T1 sequence (Q12884 1-760): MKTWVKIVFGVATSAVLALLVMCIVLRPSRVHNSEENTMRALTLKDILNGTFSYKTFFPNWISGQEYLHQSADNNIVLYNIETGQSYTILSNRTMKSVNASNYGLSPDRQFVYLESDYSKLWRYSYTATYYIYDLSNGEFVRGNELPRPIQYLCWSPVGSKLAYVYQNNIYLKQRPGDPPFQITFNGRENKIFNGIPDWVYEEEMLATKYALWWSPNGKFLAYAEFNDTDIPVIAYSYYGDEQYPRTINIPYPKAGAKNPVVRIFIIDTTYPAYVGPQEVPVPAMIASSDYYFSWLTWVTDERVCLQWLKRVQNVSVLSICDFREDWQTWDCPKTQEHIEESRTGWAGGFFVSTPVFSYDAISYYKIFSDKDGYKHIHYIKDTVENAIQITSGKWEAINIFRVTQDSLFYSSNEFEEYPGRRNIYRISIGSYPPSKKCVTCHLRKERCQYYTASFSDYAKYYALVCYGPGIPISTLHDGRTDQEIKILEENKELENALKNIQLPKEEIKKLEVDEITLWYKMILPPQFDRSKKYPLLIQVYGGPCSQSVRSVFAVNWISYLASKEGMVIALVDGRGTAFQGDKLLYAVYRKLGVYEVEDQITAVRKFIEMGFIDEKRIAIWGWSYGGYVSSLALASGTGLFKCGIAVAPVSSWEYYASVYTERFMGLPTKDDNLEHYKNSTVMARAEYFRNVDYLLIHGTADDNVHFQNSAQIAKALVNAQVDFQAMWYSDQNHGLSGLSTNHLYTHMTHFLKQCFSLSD
Outline: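 Eight-point compound dilutions (≤0.1% DMSO) were incubated at 25° C with 10 ng recombinant human FAP in Tris pH 7.5/1 M NaCl/BSA buffer and Z-Gly-Pro-AMC. Inhibition was taken as % drop in fluorescence rate (380/460 nm) against uninhibited control; IC50 came from a four-parameter logistic fit.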

[2] = target: T2, recombinant human DPP7 (Homo sapiens, UniProt Q9UHL4); assay: DPP7 inhibition, fluorogenic substrate Lys-Pro-AMC
T2 construct: purchased R&D Systems
Outline: (§1)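 Inhibitors are titrated in an 8-point series into the enzyme's assay buffer (DMSO no more than 0.5%). Substrate cleavage at 25 °C is followed by fluorescence, excitation 380 nm and emission 460 nm. IC50 values come from a four-variable logistic model.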

[3] = target: T3, recombinant human DPP8 (Homo sapiens, UniProt Q6V1X1); assay: DPP8 inhibition, fluorogenic substrate Z-Ala-Pro-AMC; settings: 25° C., Z-Ala-Pro-AMC substrate
T3 construct: purchased PBS Bioscience
T3 sequence (Q6V1X1 whole entry): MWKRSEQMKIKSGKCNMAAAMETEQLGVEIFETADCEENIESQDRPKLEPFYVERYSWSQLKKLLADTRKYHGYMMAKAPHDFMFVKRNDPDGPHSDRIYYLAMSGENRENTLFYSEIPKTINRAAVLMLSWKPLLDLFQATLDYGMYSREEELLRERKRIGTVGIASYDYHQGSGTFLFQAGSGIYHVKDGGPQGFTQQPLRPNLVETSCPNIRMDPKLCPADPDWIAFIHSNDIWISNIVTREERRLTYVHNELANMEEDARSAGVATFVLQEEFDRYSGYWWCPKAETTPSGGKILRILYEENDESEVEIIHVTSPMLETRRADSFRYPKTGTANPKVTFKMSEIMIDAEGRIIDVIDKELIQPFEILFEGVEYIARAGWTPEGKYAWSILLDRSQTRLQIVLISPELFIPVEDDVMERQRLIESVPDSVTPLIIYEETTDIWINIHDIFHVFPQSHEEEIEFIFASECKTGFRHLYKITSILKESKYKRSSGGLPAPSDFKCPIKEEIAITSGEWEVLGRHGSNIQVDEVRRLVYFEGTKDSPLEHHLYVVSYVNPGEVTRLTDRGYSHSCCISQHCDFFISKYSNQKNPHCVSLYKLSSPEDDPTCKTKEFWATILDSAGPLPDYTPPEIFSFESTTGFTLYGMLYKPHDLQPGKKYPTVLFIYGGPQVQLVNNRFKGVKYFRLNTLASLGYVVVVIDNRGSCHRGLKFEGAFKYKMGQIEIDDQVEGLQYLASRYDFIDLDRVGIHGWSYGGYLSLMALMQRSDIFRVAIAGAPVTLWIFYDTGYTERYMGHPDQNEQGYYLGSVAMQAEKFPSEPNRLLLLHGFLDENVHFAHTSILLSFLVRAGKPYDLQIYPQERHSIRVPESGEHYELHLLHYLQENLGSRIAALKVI
Outline: as §1

[4] = target: T4, recombinant human DPP9 (Homo sapiens, UniProt Q86TI2); assay: DPP9 inhibition, fluorogenic substrate H-Gly-Pro-AMC; settings: 25° C., H-Gly-Pro-AMC substrate
T4 construct: purchased R&D Systems
T4 sequence (Q86TI2 whole entry): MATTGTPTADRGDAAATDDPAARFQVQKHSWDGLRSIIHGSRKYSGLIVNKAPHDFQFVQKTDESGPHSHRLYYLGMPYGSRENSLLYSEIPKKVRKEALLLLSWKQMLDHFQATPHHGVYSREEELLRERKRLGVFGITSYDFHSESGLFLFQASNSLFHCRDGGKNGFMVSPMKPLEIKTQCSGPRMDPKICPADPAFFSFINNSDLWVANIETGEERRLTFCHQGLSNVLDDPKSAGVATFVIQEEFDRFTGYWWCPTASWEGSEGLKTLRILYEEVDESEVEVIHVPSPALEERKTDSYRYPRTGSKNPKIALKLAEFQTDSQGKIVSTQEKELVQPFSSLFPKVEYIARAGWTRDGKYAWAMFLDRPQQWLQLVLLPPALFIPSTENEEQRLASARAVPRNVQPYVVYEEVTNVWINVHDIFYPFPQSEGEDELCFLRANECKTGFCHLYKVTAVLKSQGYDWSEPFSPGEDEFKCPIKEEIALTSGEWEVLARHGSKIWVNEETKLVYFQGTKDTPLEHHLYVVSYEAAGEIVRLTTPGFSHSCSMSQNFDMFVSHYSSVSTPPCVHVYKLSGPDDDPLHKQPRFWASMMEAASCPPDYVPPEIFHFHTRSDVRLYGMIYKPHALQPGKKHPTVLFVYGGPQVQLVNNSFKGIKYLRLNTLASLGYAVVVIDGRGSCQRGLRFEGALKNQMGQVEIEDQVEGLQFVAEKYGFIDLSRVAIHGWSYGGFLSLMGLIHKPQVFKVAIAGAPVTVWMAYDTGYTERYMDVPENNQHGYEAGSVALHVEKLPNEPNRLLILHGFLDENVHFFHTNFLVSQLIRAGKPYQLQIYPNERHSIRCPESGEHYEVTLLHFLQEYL
Outline: as §1

[5] = target: T5, recombinant human PREP (Homo sapiens, UniProt P48147); assay: PREP inhibition, fluorogenic substrate Z-Gly-Pro-AMC; settings: Inhibitory Activity (IC50, nM) PREP, 25° C., Z-Gly-Pro-AMC substrate
T5 construct: purchased R&D System
T5 sequence (P48147 1-710): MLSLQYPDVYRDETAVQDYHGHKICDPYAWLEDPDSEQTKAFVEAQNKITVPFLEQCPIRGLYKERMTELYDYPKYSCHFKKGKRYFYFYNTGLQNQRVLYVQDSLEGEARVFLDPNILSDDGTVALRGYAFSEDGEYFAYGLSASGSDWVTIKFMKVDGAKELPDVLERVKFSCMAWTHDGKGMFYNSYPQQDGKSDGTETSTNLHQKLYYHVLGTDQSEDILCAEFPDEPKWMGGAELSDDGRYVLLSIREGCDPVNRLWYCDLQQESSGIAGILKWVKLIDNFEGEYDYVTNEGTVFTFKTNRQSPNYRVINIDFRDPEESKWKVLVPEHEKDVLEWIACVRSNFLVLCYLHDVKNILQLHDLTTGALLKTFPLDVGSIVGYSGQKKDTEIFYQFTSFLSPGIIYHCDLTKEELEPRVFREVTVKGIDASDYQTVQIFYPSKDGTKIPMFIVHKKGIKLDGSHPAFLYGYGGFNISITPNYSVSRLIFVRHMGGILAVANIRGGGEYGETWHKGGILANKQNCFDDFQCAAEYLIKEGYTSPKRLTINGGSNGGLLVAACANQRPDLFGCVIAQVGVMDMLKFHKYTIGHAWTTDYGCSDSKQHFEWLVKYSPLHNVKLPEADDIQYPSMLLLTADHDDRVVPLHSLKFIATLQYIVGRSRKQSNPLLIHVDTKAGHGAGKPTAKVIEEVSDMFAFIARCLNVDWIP
Outline: as §1

[6] = target: DPP4 (Homo sapiens, UniProt P27487); assay: DPP4 inhibition, fluorogenic substrate H-Gly-Pro-AMC; parameters: purchased R&D Systems; settings: for inhibition at 1 µM: read-out: hDPP4 inhibition % at 1 μM; for IC50: 25° C., H-Gly-Pro-AMC substrate
DPP4, sequence (P27487 whole entry): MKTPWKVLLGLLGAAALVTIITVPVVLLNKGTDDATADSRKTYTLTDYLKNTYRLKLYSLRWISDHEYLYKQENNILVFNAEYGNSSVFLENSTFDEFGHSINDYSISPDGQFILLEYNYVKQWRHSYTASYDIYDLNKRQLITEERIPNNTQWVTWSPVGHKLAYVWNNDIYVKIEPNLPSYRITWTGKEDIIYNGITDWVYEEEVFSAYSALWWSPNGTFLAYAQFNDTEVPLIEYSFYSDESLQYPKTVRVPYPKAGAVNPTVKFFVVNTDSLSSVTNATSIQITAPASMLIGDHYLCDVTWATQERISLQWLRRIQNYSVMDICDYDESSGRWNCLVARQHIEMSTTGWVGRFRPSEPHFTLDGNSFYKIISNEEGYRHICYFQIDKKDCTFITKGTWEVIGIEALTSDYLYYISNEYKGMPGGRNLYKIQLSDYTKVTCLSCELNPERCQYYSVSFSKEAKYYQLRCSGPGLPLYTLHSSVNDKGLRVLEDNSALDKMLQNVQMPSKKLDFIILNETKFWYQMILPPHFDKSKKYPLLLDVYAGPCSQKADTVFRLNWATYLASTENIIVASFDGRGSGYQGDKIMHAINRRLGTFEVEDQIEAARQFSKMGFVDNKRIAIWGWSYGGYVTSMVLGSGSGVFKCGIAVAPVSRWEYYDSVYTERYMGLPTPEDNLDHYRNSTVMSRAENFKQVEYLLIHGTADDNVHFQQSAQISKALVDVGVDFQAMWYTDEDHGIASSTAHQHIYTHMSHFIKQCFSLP

SMILES | IC50 [1] | IC50 [2] | IC50 [3] | IC50 [4] | IC50 [5] | inhibition at 1 µM [6] | hDPP4 inhibition % at 1 μM [6] | IC50 [6]
N#C[C@@H]1C[C@@H]2C[C@@H]2N1C(=O)CN1CCC(Nc2cccc3ncccc23)CC1 [Example 115, (1S,3S,5S)-2-(2-(4-(quinolin-5-ylamino)piperidin-1-yl)acetyl)-2-azabicyclo[3.1.0]hexane-3-carbonitrile] | 0.00564 µM | 5.74 µM | 52.1 µM | 45.1 µM | > 100000 nM | 1.4% | – | –
N#C[C@@H]1CCCN1C(=O)CN1CCC(Oc2ccnc3ccccc23)CC1 [Example 118, (S)-1-(2-(4-(quinolin-4-yloxy)piperidin-1-yl)acetyl)pyrrolidine-2-carbonitrile] | 0.00234 µM | 10.2 µM | 85.4 µM | > 100 µM | 1040 nM | – | No inhibition** | –
Cc1ccc2ncccc2c1NC1CCN(CC(=O)N2CCC[C@H]2C#N)CC1 [Example 122, (S)-1-(2-(4-((6-methylquinolin-5-yl)amino)piperidin-1-yl)acetyl)pyrrolidine-2-carbonitrile] | 0.445 µM | > 100 µM | > 100 µM | > 100 µM | 23700 nM | – | – | > 10 µM
N#C[C@@H]1CCCN1C(=O)CN1CCC(Nc2cc(F)cc3ncccc23)CC1 [Example 123, (S)-1-(2-(4-((7-fluoroquinolin-5-yl)amino)piperidin-1-yl)acetyl)pyrrolidine-2-carbonitrile] | 0.00241 µM | 1.28 µM | > 30 µM | 44.9 µM | 20100 nM | – | – | > 10 µM
COc1cc(NC2CCN(CC(=O)N3CCC[C@H]3C#N)CC2)c2cccnc2c1 [Example 124, (S)-1-(2-(4-((7-methoxyquinolin-5-yl)amino)piperidin-1-yl)acetyl)pyrrolidine-2-carbonitrile] | 0.00381 µM | 0.518 µM | 46.8 µM | 82.7 µM | 16100 nM | – | – | > 10 µM
COc1ccc(NC2CCN(CC(=O)N3CCC[C@H]3C#N)CC2)c2cccnc12 [Example 125, (S)-1-(2-(4-((8-methoxyquinolin-5-yl)amino)piperidin-1-yl)acetyl)pyrrolidine-2-carbonitrile] | 0.0055 µM | 5.55 µM | 33.7 µM | > 100 µM | 28900 nM | – | – | > 10 µM
COc1ccc2c(OC3CCN(CC(=O)N4C[C@@H](F)C[C@H]4C#N)CC3)ccnc2c1 [Example 129, (2S,4S)-4-fluoro-1-(2-(4-((7-methoxyquinolin-4-yl)oxy)piperidin-1-yl)acetyl)pyrrolidine-2-carbonitrile] | 0.00266 µM | 0.642 µM | 9.84 µM | 4.85 µM | 161 nM | – | – | > 10 µM
Cc1cnc2cccc(NC3CCN(CC(=O)N4C[C@@H](F)C[C@H]4C#N)CC3)c2c1 [Example 131, (2S,4S)-4-fluoro-1-(2-(4-((3-methylquinolin-5-yl)amino)piperidin-1-yl)acetyl)pyrrolidine-2-carbonitrile] | 0.00273 µM | 0.61 µM | 8.26 µM | 2.78 µM | 7920 nM | – | – | 3.45 µM
COc1cc(NC2CCN(CC(=O)N3C[C@@H](F)C[C@H]3C#N)CC2)c2cccnc2c1 [Example 133, (2S,4S)-4-fluoro-1-(2-(4-((7-methoxyquinolin-5-yl)amino)piperidin-1-yl)acetyl)pyrrolidine-2-carbonitrile] | 0.00237 µM | 0.153 µM | 6.48 µM | 6 µM | 2600 nM | – | – | 6.02 µM
COc1ccc(NC2CCN(CC(=O)N3C[C@@H](F)C[C@H]3C#N)CC2)c2cccnc12 [Example 135, (2S,4S)-4-fluoro-1-(2-(4-((8-methoxyquinolin-5-yl)amino)piperidin-1-yl)acetyl)pyrrolidine-2-carbonitrile] | 0.00347 µM | 1.02 µM | 5.78 µM | 3.44 µM | 4990 nM | – | – | 4.14 µM

Compounds with a lower IC50 [1], results first:

IC50 [1] | IC50 [2] | IC50 [3] | IC50 [4] | IC50 [5] | inhibition at 1 µM [6] | hDPP4 inhibition % at 1 μM [6] | IC50 [6] | SMILES
0.00094 µM | < 0.03 µM | 1.53 µM | 3.4 µM | 31000 nM | 15.7% | – | – | N#C[C@@H]1CC(F)(F)CN1C(=O)CN1CCC(Nc2cccc3ncccc23)CC1 [Example 114, (S)-4,4-difluoro-1-(2-(4-(quinolin-5-ylamino)piperidin-1-yl)acetyl)pyrrolidine-2-carbonitrile]
0.00145 µM | 2.35 µM | 60.4 µM | > 100 µM | 3760 nM | – | No inhibition** | – | N#C[C@@H]1CCCN1C(=O)CN1CCC(Oc2cccc3ncccc23)CC1 [Example 119, (S)-1-(2-(4-(quinolin-5-yloxy)piperidin-1-yl)acetyl)pyrrolidine-2-carbonitrile]
0.00184 µM | 1.74 µM | 48.1 µM | 46.9 µM | 73700 nM | – | – | > 10 µM | Cc1cnc2cccc(NC3CCN(CC(=O)N4CCC[C@H]4C#N)CC3)c2c1 [Example 121, (S)-1-(2-(4-((3-methylquinolin-5-yl)amino)piperidin-1-yl)acetyl)pyrrolidine-2-carbonitrile]
0.00084 µM | 10.4 µM | 16.4 µM | 11 µM | 1130 nM | – | – | 7.96 µM | N#C[C@@H]1C[C@H](F)CN1C(=O)CN1CCC(Oc2ccnc3ccc(F)cc23)CC1 [Example 126, (2S,4S)-4-fluoro-1-(2-(4-((6-fluoroquinolin-4-yl)oxy)piperidin-1-yl)acetyl)pyrrolidine-2-carbonitrile]
0.00065 µM | 9.23 µM | 8.73 µM | 23.7 µM | 621 nM | – | – | > 10 µM | N#C[C@@H]1C[C@H](F)CN1C(=O)CN1CCC(Oc2ccnc3ccc(Cl)cc23)CC1 [Example 127, (2S,4S)-1-(2-(4-((6-chloroquinolin-4-yl)oxy)piperidin-1-yl)acetyl)-4-fluoropyrrolidine-2-carbonitrile]
0.00125 µM | 0.904 µM | 10.4 µM | 5.97 µM | 2340 nM | – | – | > 10 µM | COc1cc2nccc(OC3CCN(CC(=O)N4C[C@@H](F)C[C@H]4C#N)CC3)c2cc1OC [Example 130, (2S,4S)-1-(2-(4-((6,7-dimethoxyquinolin-4-yl)oxy)piperidin-1-yl)acetyl)-4-fluoropyrrolidine-2-carbonitrile]
0.00217 µM | 0.492 µM | 13.9 µM | 3.64 µM | 2820 nM | – | – | 7.43 µM | N#C[C@@H]1C[C@H](F)CN1C(=O)CN1CCC(Nc2cc(F)cc3ncccc23)CC1 [Example 132, (2S,4S)-4-fluoro-1-(2-(4-((7-fluoroquinolin-5-yl)amino)piperidin-1-yl)acetyl)pyrrolidine-2-carbonitrile]
